Test results published in PMC10916382, “Repurposing screen identifies novel candidates for broad-spectrum coronavirus antivirals and druggable host targets” (Antimicrobial Agents and Chemotherapy, 2024).
pIC50: −log10 of the molar value. Structures can show the parent of a compound that is named as a salt. Where two headings read alike, the source gives them in different places.

Tests used:
SARS-CoV-2 [1] = conditions: for SI (CC50/IC50): CC50 from LDH assay / IC50 from qRT-PCR
HCoV-229E [2] = test: microbe, parasite or virus in culture; type: cell-based, Homo sapiens sapiens
SARS-CoV-2 [3] = conditions: for outcome against confirmation criteria of the SARS-CoV-2 counter-screen (<50% infected cell, >75% total cells): single dose of 5 µM
SARS-CoV-2 [4] = conditions: cited from earlier work
in vitro [5] = conditions: for viability: Anti-SARS-CoV-2 screening on Calu-3 cells: viability [% of control], Calu-3 cells
SARS-CoV-2 [6] = test: microbe, parasite or virus in culture; conditions: Severe acute respiratory syndrome coronavirus 2, Calu-3, 48 h
SARS-CoV-2 [7] = type: cell-based; conditions: dose range 0.15 µM to 10 µM, viral genome copies in apical washes and cellular lysates
in vitro [8] = conditions: human
[9] = tested on: primary human airway epithelial cells; conditions: dose range 0.15 µM to 10 µM, cellular lysates
HCoV-229E [10] = test: Twelve-step dose titration against HCoV-229E infection on Huh-7.5/F-Luc/Cas9 cells; type: cell-based, Homo sapiens sapiens; conditions: Human coronavirus 229E, Huh7.5, twelve-step 1:3 dilutions, n = 3
in vitro [11] = conditions: human; remark: listed apart in the source
[12] = Huh-7.5 cells, dose series, maximum tested dose 5 µM
[13] = Calu-3 cells, immunofluorescence imaging
[14] = Human coronavirus 229E, Huh7.5, 48 h, read-out: IC50 against HCoV-229E

In the case of COc1cc(F)ccc1-c1cc(Nc2cc(CS(C)(=N)=O)ccn2)ncc1F (single isomer, unassigned; (+)) [(+)-BAY-1251152, reference compound], the “virus load in the culture fluid” value (SARS-CoV-2 [1]) was “reduced virus load”, the pIC50 (HCoV-229E [2]; HCoV 229E infection, dose series, max. dose 5 µM, read-out: IC50) was 6.89 and the “CC50 (µM)” value (Huh-7.5/F-Luc cells; [12]) was “greater than maximum tested dose”. The “% cell viability at max. dose [5 µM]” value (Huh-7.5/F-Luc cells; at max. dose 5 µM) was 115.26%, the “Anti-SARS-CoV-2 screening on Calu-3 cells: viability [% of control]” value (SARS-CoV-2 [3]; Calu-3 cells) was 100.11 % of control and the “Anti-SARS-CoV-2 screening on Calu-3 cells: intracellular SARS-CoV-2 infection measured via immunofluorescence imaging [% of control]” value (SARS-CoV-2 [3]; [13]) was 51.46 % of control. For the same compound, the “outcome against confirmation criteria of the SARS-CoV-2 counter-screen (<50% infected cell, >75% total cells)” value (“outcome … (<50% infected cell, >75% total cells)” for short) (SARS-CoV-2 [3]; Calu-3 cells) was “did not meet our stringent confirmation criteria”.

In the case of C=C(CC(=O)OCCCCCCCC)C(=O)O [4-OI, 4-octyl-itaconate], the “anti-SARS-CoV-2 effects” value (SARS-CoV-2 [4]) is given as “anti-SARS-CoV-2 effects at high concentrations”.

With CC1(C)CC[C@]2(C(=O)O)CC[C@]3(C)[C@H](C(=O)C=C4[C@@]5(C)C=C(C#N)C(=O)C(C)(C)[C@@H]5CC[C@]43C)[C@@H]2C1 [Bardoxolone, reference compound] the “SI (CC50/IC50)” value (SARS-CoV-2 [1]; Calu-3 cells) was 3.90, the viability at 48 h, 5 µM (in vitro [5]) was 118% and the pIC50 (SARS-CoV-2 [6]) was 5.72. The IC90 (SARS-CoV-2 [6]) was 7030 nM, the pIC50 (HCoV-229E [2]; Human coronavirus 229E, Huh7.5) was 7.40 and the pIC50 (HCoV-229E [2]; [14]) was 7.43. For the same compound, the “antiviral activity against SARS-CoV-2 in HAE cells” value (shortened to “antiviral activity”) (SARS-CoV-2 [7]) was “the reduction in viral genome copies could not be separated from an increase in cytotoxicity”, the “Anti-SARS-CoV-2 screening on Calu-3 cells: intracellular SARS-CoV-2 infection measured via immunofluorescence imaging [% of control]” value (SARS-CoV-2 [3]; [13]) was 95.03 % of control and the “outcome … (<50% infected cell, >75% total cells)” value (SARS-CoV-2 [3]; Calu-3 cells) was “did not meet the inclusion criteria”.

For COC(=O)/C=C/C(=O)OC [DMF, dimethyl fumarate], the “anti-SARS-CoV-2 effects” value (SARS-CoV-2 [4]) is listed as “anti-SARS-CoV-2 effects at high concentrations”.

In the case of CCc1cnn2c(NCc3ccc[n+]([O-])c3)cc(N3CCCC[C@H]3CCO)nc12 [Dinaciclib, reference compound], the “virus load in the culture fluid” value (SARS-CoV-2 [1]; Calu-3 cells, screening dose 5 µM, 48 hours post-inoculation) was “reduced virus load”, the viability at 48 h, 5 µM (in vitro [5]) was 29.7% and the “CC50 (µM)” value (Huh-7.5/F-Luc cells) was “greater than maximum tested dose”. The “Anti-SARS-CoV-2 screening on Calu-3 cells: intracellular SARS-CoV-2 infection measured via immunofluorescence imaging [% of control]” value (SARS-CoV-2 [3]) was 72.14 % of control, the “outcome … (<50% infected cell, >75% total cells)” value (SARS-CoV-2 [3]; Calu-3 cells) was “did not meet our stringent confirmation criteria” and the “inhibition of SARS-CoV-2 infection” value (SARS-CoV-2 [4]; Vero E6 and A549/ACE2 cells) was “nanomolar efficacy”.

In the case of O=Cc1c2[nH]c3ccccc3c2cc2[nH]c3ccccc3c12 [FICZ, 6-formylindolo(3,2-b) carbazole], the “inhibition of SARS-CoV-2 infection” value (SARS-CoV-2 [4]; Vero cells) is given as “inhibited SARS-CoV-2 infection of Vero cells”.

In the case of CN1CC[C@H](c2c(O)cc(O)c3c(=O)cc(-c4ccccc4Cl)oc23)[C@H](O)C1 [Flavopiridol], the “SI (CC50/IC50)” value (SARS-CoV-2 [1]; Calu-3 cells) was 2.21, the pIC50 (SARS-CoV-2 [6]) was 6.68 and the IC90 (SARS-CoV-2 [6]) was 520 nM. For the same compound, the “antiviral activity” value (SARS-CoV-2 [7]) was “the reduction in viral genome copies could not be separated from an increase in cytotoxicity”, the CC50 (in vitro [8]) was 460 nM and the total cell numbers (SARS-CoV-2 [3]; Calu-3 cells, 5 µM, DAPI, relative to DMSO) was ≥ 75%. The “reduction of infected cell numbers” value (SARS-CoV-2 [3]; Calu-3 cells, 5 µM, N protein immunofluorescence, relative to DMSO) was “more than 50%” and the “outcome … (<50% infected cell, >75% total cells)” value (SARS-CoV-2 [3]; Calu-3 cells) was “qualified as a hit in both imaging- and qRT-PCR-based assays”.

For COc1ccc2[nH]c([S+]([O-])Cc3ncc(C)c(OC)c3C)nc2c1 (stereo not shown) [OMP, omeprazole], the “inhibition of SARS-CoV-2 infection” value (SARS-CoV-2 [4]; Vero cells) is given as “inhibited SARS-CoV-2 infection of Vero cells”.

With CC1(C)CC[C@]2(NC(=O)C(C)(F)F)CC[C@]3(C)[C@H](C(=O)C=C4[C@@]5(C)C=C(C#N)C(=O)C(C)(C)[C@@H]5CC[C@]43C)[C@@H]2C1 [Omaveloxolone] the “SI (CC50/IC50)” value (SARS-CoV-2 [1]; Calu-3 cells) was > 8.66, the pIC50 (SARS-CoV-2 [6]) was 6.85 and the IC90 (SARS-CoV-2 [6]) was 2410 nM. The pIC50 (HCoV-229E [2]; [14]) was 7.11, the “antiviral activity” value (SARS-CoV-2 [7]) was “inhibited SARS-CoV-2 infection at 1.25 µM and 2.5 µM” and the CC50 (in vitro [8]) was > 1250 nM. The “outcome … (<50% infected cell, >75% total cells)” value (SARS-CoV-2 [3]; Calu-3 cells) was “did not meet the inclusion criteria” and the “cytotoxicity in HAE cells, GAPDH mRNA” value [9] was “maintaining high cell viability”.

With CC/C(=C(/C#N)c1ccc(OCCN(CC)CC)cc1)c1ccc(Cl)cc1 [P-3622, Z-3-(4-chlorophenyl)-2-(4-(2-(diethylamino)ethoxy)phenyl)pent-2-enenitrile] the “SI (CC50/IC50)” value (SARS-CoV-2 [1]; Calu-3 cells) was 2.09, the viability (in vitro [5]) was 97.7% and the pIC50 (SARS-CoV-2 [6]) was 5.03. For the same compound, the IC90 (SARS-CoV-2 [6]) was 23400 nM, the pIC50 (HCoV-229E [2]; Human coronavirus 229E, Huh7.5) was 6.06 and the “antiviral activity” value (SARS-CoV-2 [7]) was “limited antiviral activity”. For the same compound, the pIC50 (HCoV-229E [10]) was 6.44, the CC50 (in vitro [8]) was 19500 nM and the “CC50 (µM)” value (Huh-7.5/F-Luc cells; [12]) was “greater than maximum tested dose”. For the same compound, the “Anti-SARS-CoV-2 screening on Calu-3 cells: intracellular SARS-CoV-2 infection measured via immunofluorescence imaging [% of control]” value (SARS-CoV-2 [3]; [13]) was 97.91 % of control and the “cytotoxicity in HAE cells, GAPDH mRNA” value [9] was “well tolerated”.

With Oc1ccc2c(c1)OC[C@@H](c1ccccc1)[C@H]2c1ccc(OCCN2CCCC2)cc1 [RFM-011-457-8] the viability (in vitro [5]) was 101%, the IC50 (HCoV-229E [2]; Human coronavirus 229E, Huh7.5, read-out: IC50 (µM), HCoV 229E) was 1.5 µM and the “CC50 (µM)” value (Huh-7.5/F-Luc cells; Huh-7.5/F-Luc cells, maximum tested dose 5 µM) was “greater than maximum tested dose”. For the same compound, the “Anti-SARS-CoV-2 screening on Calu-3 cells: intracellular SARS-CoV-2 infection measured via immunofluorescence imaging [% of control]” value (SARS-CoV-2 [3]; [13]) was 113.89 % of control and the viability at 5 µM (in vitro [11]) was 144%.
